PMC3914206

Tests used:
panel of 442 kinases [1] = biological target: T1, panel of 442 kinases (Homo sapiens, UniProt P00519, E255K); assay type: binding; details: Compound Concentration 10 µM
T1 construct: purchased KINOMEscan
Source text: (§1) We assessed the selectivity of members of this scaffold using the KINOMEscan methodology across a near comprehensive panel of 442 kinases [[18,27]].

panel of 442 kinases [2] = biological target: T2, panel of 442 kinases (Homo sapiens, UniProt Q96PY6); assay type: binding; details: Compound Concentration 10 µM
T2 construct: purchased KINOMEscan
T2 sequence (Q96PY6 1-1258): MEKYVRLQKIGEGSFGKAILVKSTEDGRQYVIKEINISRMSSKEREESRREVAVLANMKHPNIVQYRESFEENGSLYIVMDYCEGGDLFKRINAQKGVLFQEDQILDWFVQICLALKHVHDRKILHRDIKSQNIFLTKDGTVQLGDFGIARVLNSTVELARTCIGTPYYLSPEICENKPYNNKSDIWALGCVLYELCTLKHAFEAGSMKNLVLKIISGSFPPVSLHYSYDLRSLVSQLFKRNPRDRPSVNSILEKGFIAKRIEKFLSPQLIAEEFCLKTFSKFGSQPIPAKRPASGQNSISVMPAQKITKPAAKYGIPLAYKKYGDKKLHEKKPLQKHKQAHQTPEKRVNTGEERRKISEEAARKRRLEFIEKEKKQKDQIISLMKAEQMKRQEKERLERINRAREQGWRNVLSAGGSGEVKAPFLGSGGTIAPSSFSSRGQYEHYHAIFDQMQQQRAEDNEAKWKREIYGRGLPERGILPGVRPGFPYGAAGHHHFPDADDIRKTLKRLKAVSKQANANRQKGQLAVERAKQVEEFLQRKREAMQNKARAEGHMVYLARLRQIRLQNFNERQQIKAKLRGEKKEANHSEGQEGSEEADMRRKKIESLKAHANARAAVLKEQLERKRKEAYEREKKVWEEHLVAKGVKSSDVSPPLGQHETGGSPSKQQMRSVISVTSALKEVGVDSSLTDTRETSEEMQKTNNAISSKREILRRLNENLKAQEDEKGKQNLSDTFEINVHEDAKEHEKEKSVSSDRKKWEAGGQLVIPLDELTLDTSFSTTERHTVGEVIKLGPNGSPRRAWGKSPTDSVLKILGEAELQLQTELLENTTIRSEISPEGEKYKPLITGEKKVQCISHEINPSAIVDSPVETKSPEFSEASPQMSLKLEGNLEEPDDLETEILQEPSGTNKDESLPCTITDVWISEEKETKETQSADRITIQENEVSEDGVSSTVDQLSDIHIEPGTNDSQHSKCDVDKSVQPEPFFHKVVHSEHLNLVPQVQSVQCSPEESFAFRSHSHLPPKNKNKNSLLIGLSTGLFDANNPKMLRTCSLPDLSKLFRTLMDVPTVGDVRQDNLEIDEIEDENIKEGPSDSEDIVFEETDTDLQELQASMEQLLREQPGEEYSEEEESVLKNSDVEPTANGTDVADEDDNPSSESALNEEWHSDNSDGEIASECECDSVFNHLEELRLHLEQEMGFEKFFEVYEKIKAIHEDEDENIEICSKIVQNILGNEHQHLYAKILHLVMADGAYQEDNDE
Source text: as §1

T1 sequence (P00519 whole entry E255K): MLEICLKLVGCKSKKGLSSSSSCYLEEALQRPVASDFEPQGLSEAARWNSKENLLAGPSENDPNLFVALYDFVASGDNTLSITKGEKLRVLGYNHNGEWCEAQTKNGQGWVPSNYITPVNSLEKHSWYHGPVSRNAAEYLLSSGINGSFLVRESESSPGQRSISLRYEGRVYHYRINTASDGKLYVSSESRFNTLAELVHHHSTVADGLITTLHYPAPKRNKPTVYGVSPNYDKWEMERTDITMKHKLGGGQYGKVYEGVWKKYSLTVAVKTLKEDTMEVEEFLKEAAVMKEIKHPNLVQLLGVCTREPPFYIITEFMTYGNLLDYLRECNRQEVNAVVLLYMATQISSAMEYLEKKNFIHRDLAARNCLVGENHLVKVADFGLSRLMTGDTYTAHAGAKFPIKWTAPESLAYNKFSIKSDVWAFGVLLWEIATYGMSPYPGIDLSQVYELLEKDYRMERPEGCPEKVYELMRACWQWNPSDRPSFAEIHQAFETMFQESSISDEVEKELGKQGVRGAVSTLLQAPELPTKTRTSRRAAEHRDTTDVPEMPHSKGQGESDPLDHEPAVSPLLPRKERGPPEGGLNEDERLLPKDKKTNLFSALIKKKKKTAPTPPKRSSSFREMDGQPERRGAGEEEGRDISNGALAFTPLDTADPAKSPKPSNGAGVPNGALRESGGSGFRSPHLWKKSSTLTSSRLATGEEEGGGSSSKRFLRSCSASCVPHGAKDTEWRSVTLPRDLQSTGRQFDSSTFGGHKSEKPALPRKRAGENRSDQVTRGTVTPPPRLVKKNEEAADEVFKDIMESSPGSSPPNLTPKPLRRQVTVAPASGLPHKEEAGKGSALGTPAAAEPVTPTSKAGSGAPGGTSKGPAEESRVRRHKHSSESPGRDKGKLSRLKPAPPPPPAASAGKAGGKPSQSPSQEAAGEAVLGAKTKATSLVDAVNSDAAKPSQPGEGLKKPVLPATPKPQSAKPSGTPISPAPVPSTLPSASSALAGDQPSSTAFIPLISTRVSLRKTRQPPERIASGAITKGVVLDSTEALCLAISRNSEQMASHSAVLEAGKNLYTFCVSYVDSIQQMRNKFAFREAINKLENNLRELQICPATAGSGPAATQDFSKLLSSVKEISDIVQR

Row | Structure (SMILES) | KINOMEscan: ABL1(E255K)-phosphorylated (panel of 442 kinases [1]) | KINOMEscan: NEK1 (panel of 442 kinases [2])
1 | COc1cc(C(=O)N2CCC(N3CCN(C)CC3)CC2)ccc1Nc1ncc2c(n1)N(C1CCCC1)c1ccccc1C(=O)N2C [Compound 25, 11-cyclopentyl-2-((2-methoxy-4-(4-(4-methylpiperazin-1-yl)piperidine-1-carbonyl)phenyl)amino)-5-methyl-5H-benzo[e]pyrimido[5,4-b][1,4]diazepin-6(11H)-one] | 92 | 72
2 | CCOc1cc(C(=O)N2CCC(N3CCN(C)CC3)CC2)ccc1Nc1ncc2c(n1)N(C1CCCC1)c1ccccc1C(=O)N2C [Compound 26] | 100 | 84
3 | COc1cc(C(=O)N2CCC(N3CCN(C)CC3)CC2)ccc1Nc1ncc2c(n1)N1CCc3cccc(c31)C(=O)N2C [Compound 24] | – | 63
4 | COc1cc(C(=O)N2CCC(N3CCN(C)CC3)CC2)ccc1Nc1ncc2c(n1)N(C)c1ccccc1C(=O)N2C [15 (LRRK2-IN-1)] | 80 | 83
